The target in one data set is T1, KDM4A (Homo sapiens, UniProt O75164).
T1 sequence (O75164 1-1064): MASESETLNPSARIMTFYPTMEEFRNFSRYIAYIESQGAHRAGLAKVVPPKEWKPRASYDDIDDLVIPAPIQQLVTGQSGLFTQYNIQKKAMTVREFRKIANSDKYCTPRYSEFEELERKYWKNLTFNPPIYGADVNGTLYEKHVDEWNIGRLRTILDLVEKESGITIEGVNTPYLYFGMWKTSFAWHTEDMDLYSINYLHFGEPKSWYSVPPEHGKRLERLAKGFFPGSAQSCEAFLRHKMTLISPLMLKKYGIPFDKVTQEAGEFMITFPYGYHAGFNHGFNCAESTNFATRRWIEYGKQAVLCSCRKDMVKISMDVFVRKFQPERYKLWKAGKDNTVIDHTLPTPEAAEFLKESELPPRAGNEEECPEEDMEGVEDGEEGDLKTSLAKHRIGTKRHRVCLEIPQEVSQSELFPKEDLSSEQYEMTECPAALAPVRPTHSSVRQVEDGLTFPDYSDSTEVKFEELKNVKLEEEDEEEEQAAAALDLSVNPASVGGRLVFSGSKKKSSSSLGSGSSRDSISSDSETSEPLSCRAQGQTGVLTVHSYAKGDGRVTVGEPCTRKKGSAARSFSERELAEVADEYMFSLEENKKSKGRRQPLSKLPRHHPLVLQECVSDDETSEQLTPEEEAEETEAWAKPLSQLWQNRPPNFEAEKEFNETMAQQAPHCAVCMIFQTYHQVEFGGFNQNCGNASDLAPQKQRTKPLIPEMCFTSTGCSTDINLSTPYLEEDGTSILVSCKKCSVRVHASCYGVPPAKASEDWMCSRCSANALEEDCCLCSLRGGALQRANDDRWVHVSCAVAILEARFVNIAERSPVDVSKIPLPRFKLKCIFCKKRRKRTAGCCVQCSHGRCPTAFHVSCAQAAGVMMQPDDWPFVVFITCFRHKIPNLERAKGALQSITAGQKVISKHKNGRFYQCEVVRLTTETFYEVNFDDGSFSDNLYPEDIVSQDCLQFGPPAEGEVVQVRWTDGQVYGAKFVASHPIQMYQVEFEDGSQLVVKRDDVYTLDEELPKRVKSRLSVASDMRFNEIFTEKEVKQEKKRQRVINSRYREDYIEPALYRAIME
Briefly: KDM AlphaScreen selectivity panel, KDM4A. Format: biochemical. To be noted: for IC50: AlphaScreen after 120 min pre-incubation, read-out: KDM IC50 4A; for SI over KDM5B, 4A: KDM4A IC50/KDM5B IC50. The method, then:
(§1) A panel of JmjC KDMs was tested by AlphaScreen to determine the selectivity of the compounds (Table S2). […]
(§2) KDM alpha screen selectivity
(§3) Inhibition of histone demethylases was assessed using the histone demethylase AlphaScreen assay (Amplified Luminescence Proximity Homogenous Assay) as previously reported.[4] The basis of this assay for lysine demethylases have been widely described.[5] In brief, the assay was performed in 384-well plate format using white proxiplates (PerkinElmer), and transfer of titrations of compounds (100 nl) was performed using an ECHO 550 acoustic dispenser […]
(§4) Tween- 20) containing the appropriate demethylase enzyme (see Supplementary table 1 for final concentrations) was transferred to each well of a 384-well proxiplate with a Multidrop™ Combi Reagent Dispenser, and the enzymes allowed to pre-incubate for 120 minutes with compound (final concentration of DMSO was 1%). After that time, the enzyme reaction was initiated by addition of 5 µl of a substrate mix consisting of Ketoglutarate (2-OG), Ferrous Ammonium Sulphate (FAS), L-Ascorbic Acid (LAA) and biotinylated peptide substrate (see Supporting table X for final assay concentrations) and the reaction incubated for the indicated time at room temperature. Reaction was stopped by the addition of 5 μl of assay buffer containing EDTA (7.5 mM) and NaCl (400 mM). Streptavidin Donor beads (0.08 mg/ml) and Protein-A conjugated acceptor beads (0.08 mg/ml) (AlphaScreen General IgG detection kit was from Perkin Elmer) were pre-incubated for 1 hour with an antibody to the product methyl mark (Supplementary Table 1) and the presence of biotin-H3-product was detected by addition of 5 µl of the pre-incubated AlphaScreen beads (final concentrations of 0.02 mg/ml with respect to acceptor and donor beads). Detection was allowed to proceed for 2 hour at room temperature and the assay plates read in a BMG Labtech Pherastar FS plate reader (excitation, 680 nm; emission, 570 […]
IC50(t) = Ki (1 + K ) . ( η . k .t − 1) (1) […]
Table S4. AlphaScreen assay conditions for the KDM selectivity panel
For orientation: Bead proximity is the source of the signal in Alpha formats.

The next data set concerns the target KDM6B (Homo sapiens, UniProt O15054). The data set can be described thus: KDM AlphaScreen selectivity panel, KDM6B. To be noted: for IC50: AlphaScreen after 120 min pre-incubation, read-out: KDM IC50 6B; for SI over KDM5B, 6B: KDM6B IC50/KDM5B IC50. Format: biochemical. The method, then: as §1, §2, §3, §4
The next data set is described as follows: Caco-2 permeability. It is filed as in vitro ADME. The following applies: human, Caco-2, Caco‐2 cells, A to B. For orientation: Caco-2 cells form a polarised layer with tight junctions and transporters.

KDM6B, sequence (O15054 whole entry): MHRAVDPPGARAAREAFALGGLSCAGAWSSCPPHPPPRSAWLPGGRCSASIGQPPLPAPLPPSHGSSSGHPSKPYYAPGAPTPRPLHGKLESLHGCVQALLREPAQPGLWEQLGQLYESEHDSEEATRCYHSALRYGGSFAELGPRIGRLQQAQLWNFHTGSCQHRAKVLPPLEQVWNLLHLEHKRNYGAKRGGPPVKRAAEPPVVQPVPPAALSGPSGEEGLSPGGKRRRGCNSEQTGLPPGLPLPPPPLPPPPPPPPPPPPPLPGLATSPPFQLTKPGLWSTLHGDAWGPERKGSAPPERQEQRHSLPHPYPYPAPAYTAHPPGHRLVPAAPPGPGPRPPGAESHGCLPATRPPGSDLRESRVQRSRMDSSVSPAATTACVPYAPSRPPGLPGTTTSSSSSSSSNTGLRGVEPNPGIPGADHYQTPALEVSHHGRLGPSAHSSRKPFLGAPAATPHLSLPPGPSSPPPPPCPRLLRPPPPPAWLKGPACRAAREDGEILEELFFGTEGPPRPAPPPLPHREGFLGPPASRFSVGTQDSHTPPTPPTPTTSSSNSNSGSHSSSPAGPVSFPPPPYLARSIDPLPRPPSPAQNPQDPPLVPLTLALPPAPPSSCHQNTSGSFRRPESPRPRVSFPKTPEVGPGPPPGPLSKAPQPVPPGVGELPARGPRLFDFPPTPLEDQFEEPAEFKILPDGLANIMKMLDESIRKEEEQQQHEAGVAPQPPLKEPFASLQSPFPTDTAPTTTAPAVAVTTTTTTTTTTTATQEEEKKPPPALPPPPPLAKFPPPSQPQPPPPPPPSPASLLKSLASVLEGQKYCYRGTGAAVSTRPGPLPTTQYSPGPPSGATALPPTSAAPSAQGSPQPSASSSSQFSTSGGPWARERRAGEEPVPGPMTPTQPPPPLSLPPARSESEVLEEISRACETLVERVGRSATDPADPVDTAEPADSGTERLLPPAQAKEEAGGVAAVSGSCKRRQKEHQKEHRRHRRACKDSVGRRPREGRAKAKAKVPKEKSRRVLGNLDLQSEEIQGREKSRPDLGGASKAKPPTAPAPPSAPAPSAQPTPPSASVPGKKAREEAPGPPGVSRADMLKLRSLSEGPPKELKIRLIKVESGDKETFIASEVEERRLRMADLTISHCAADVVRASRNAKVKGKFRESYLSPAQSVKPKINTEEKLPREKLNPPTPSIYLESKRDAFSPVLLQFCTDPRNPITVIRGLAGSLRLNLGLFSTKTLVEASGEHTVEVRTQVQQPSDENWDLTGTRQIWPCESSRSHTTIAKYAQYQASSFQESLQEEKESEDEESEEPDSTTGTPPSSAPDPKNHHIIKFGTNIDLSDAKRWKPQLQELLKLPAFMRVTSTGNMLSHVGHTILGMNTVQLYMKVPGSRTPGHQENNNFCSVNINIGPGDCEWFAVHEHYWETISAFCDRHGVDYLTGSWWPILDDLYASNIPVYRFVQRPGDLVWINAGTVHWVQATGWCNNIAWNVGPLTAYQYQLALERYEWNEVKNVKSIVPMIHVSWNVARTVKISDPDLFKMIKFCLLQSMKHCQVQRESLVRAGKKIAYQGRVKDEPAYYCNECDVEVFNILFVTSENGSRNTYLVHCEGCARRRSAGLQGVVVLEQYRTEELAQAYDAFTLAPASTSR

Consider `C=CC(=O)Nc1cccc(CN(C)CCc2cnn(-c3nccc4c(=O)[nH]cnc34)c2)c1` [Compound 4], for which the 50% inhibitory concentration (IC50) at KDM4A came to 1.2 ± 0.1 µM. Besides, at KDM6B, the IC50 is above 33 µM and the “SI over KDM5B, 6B” value is above 1650. In the data set “Caco-2 permeability”, this compound returned a Papp A→B below 1.5 ×10⁻⁶ cm/s.
Consider `CN(CCc1cnn(-c2nccc3c(=O)[nH]cnc23)c1)Cc1cccc(NC(=O)CCl)c1` [Compound 5], for which, at KDM4A, the IC50 turned out to be 0.4 ± 0.1 µM and the “SI over KDM5B, 4A” value is given as 41. On KDM6B, the IC50 was 0.67 ± 0.01 µM and the “SI over KDM5B, 6B” value was 67. In “Caco-2 permeability”, this compound registered an apical-to-basolateral permeability (Papp A→B) below 1.5 ×10⁻⁶ cm/s.
In the case of `CN(C)C/C=C/C(=O)Nc1cccc(CN(C)CCc2cnn(-c3nccc4c(=O)[nH]cnc34)c2)c1` [Compound 6], the values for the IC50 on KDM4A and at KDM6B were 2.4 ± 0.1 µM and above 100 µM, respectively. In addition, in “Caco-2 permeability”, the Papp A→B was below 1.5 ×10⁻⁶ cm/s.
Turning to `CC(C)c1c(-c2cnn(CCNC(=O)CCl)c2)[nH]c2c(C#N)cnn2c1=O` [Compound 7], on KDM4A, the “selectivity over KDM4A” value is on record as above 500 fold; the IC50 is 4.6 ± 0.1 µM; the “SI over KDM5B, 4A” value was determined as 653. Moreover, at KDM6B, the IC50 is above 100 µM and the “SI over KDM5B, 6B” value is recorded as above 14285. In addition, the Papp A→B in “Caco-2 permeability” is below 0.76 ×10⁻⁶ cm/s.
Regarding `C=CC(=O)NCCOc1ccc(-c2[nH]c3c(C#N)cnn3c(=O)c2C(C)C)cc1` [Compound 9], on KDM4A, the IC50 amounted to 4.6 ± 0.4 µM and the “SI over KDM5B, 4A” value turned out to be 71. At KDM6B, the concentration for half-maximal inhibition (IC50) is above 100 µM and the “SI over KDM5B, 6B” value is above 1539. This compound also had a Papp A→B in the data set “Caco-2 permeability” below 0.76 ×10⁻⁶ cm/s.
Turning to `C=CC(=O)N1CCC(n2cc(-c3[nH]c4c(C#N)cnn4c(=O)c3C(C)C)cn2)CC1` [Compound 10], on KDM4A, the “selectivity over KDM4A” value was above 500 fold; the 50% inhibitory concentration (IC50) was 12.7 ± 0.6 µM; the “SI over KDM5B, 4A” value is 742. On KDM6B, the IC50 is above 100 µM. Further, in the data set “Caco-2 permeability”, the Papp A→B is below 0.76 ×10⁻⁶ cm/s.
`CC(C)c1c(-c2cnn(C3CCN(C(=O)CCl)CC3)c2)[nH]c2c(C#N)cnn2c1=O` [Compound 11]: at KDM4A, the IC50 was found to be 4.3 ± 0.1 µM and the “SI over KDM5B, 4A” value turned out to be 479. Besides, at KDM6B, the IC50 is above 100 µM. Moreover, the Papp A→B in “Caco-2 permeability” is below 1.4 ×10⁻⁶ cm/s.

Broadly, the IC50 is the concentration that gives 50% inhibition. As a reminder, the Papp A→B is how fast a substance crosses the layer from the apical side. A low value points to poor permeation.
